Test in all cases: relative viability (nuclei count vs DMSO), 5 days (fraction); higher = more cells survive
Compound in the assay “Selisistat + Bortezomib”: C1CC(C2=C(C1)C3=C(N2)C=CC(=C3)Cl)C(=O)N [Selisistat] + CC(C)C[C@H](NC(=O)[C@H](Cc1ccccc1)NC(=O)c1cnccn1)B(O)O [Bortezomib] (partner 0.002 µM)
In short, it runs like this: (§1)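 Relative viability equals treated-well nuclei counts divided by vehicle-well nuclei counts. Counts came from 4× images of lung cancer cell lines grown in 1536-well plates for 5 days after pin-tool dosing on the day after seeding. Dosing used one drug alone or a fixed anchor-drug dose plus five library-drug doses (not always all listed) in √10 steps, and values are medians of duplicate plates.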

Compound in the assay “Selisistat + Crizotinib”: C1CC(C2=C(C1)C3=C(N2)C=CC(=C3)Cl)C(=O)N [Selisistat] + C[C@@H](Oc1cc(-c2cnn(C3CCNCC3)c2)cnc1N)c1c(Cl)ccc(F)c1Cl [Crizotinib] (partner 1 µM)
In short, it runs like this: as §1

Compound in the assay “Serdemetan + Bortezomib”: c1ccc2c(CCNc3ccc(Nc4ccncc4)cc3)c[nH]c2c1 [Serdemetan] + CC(C)C[C@H](NC(=O)[C@H](Cc1ccccc1)NC(=O)c1cnccn1)B(O)O [Bortezomib] (partner 0.002 µM)
The gist of the method:
as §1

Compound in the assay “Serdemetan + AZD7762”: c1ccc2c(CCNc3ccc(Nc4ccncc4)cc3)c[nH]c2c1 [Serdemetan] + NC(=O)Nc1cc(-c2cccc(F)c2)sc1C(=O)N[C@H]1CCCNC1 [AZD7762] (partner 0.2 µM)
In short, it runs like this:
as §1

The results in this text go back to the supplement of paper PMC10307832.

Turning to CAL-12T, the relative viability in the assay with Selisistat + Bortezomib (first compound 0.4 µM) was 0.992; with Selisistat + Bortezomib (first compound 1.265 µM) it was 1.12; in the assay with Selisistat + Bortezomib (first compound 12.65 µM) it was 0.768; with Selisistat + Bortezomib (first compound 40 µM) it was 0.983; with Selisistat + Crizotinib (first compound 0.4 µM) it was 0.668; in the assay with Selisistat + Crizotinib (first compound 1.265 µM), 0.518. Moreover, the relative viability in the assay with Selisistat + Crizotinib (first compound 4 µM) stood at 0.795; with Selisistat + Crizotinib (first compound 12.65 µM) it was 0.626; with Selisistat + Crizotinib (first compound 40 µM), 0.422; with Serdemetan + Bortezomib (first compound 0.1265 µM), 1.11; in the assay with Serdemetan + Bortezomib (first compound 1.265 µM), 0.931; in the assay with Serdemetan + Bortezomib (first compound 4 µM), 1.04. Moreover, the relative viability with Serdemetan + AZD7762 (first compound 0.04 µM) was 0.557; with Serdemetan + AZD7762 (first compound 0.1265 µM) it was 0.609; with Serdemetan + AZD7762 (first compound 0.4 µM) it was 0.555; with Serdemetan + AZD7762 (first compound 1.265 µM) it was 0.547; with Serdemetan + AZD7762 (first compound 4 µM) it was 0.599.
